Like-named read-outs stand apart in the source and are kept apart here.
Key:
[1] = Rate of superoxide radical trapping by competitive trapping versus DEPMPO (EPR); settings: based on kDEPMPO=58 M^−1 s^−1
Experimental: The nitrone 5-carbamoyl-5-methyl-1-pyrroline N-oxide (AMPO) was successfully synthesized and characterized. […] Resulting spin adducts for each of these radicals gave unique spectral profiles. […] Theoretical analyses using density functional theory calculations at the B3LYP/6-31=G**/B3LYP6-31G* level were performed on AMPO and its corresponding suproxide product. Calculations predicted the presence of intramolecular H-bonding in both AMPO and its superoxide adduct, and these interactions were further confirmed by an X-ray structure (in the case of AMPO) of a novel and the amido nitrone compound 2-amino-5-carbamoyl-5-methyl-1-pyrroline N-oxide (NH2-AMPO).
(§1) Trapping of O2^•−. Typical O2^•− trapping experiments utilized the riboflavin-light system as described in the Kinetics section. An alternative O2^•− generating system used a solution of 0.4 mM xanthine and 0.5 unit/mL xanthine oxidase, or 10 nM PMA and 8×10^5 neutrophil cells in 25 mM AMPO. Spectra were acquired over a period of 15 min.

[2] = Decay kinetics of nitrone-superoxide adducts (EPR, riboflavin-light system); format: physicochemical; settings: pH 7.2 and 23° C.; this work
Experimental: Decay Kinetics In a typical decay kinetic study, 50 μL solution containing 25 mM of the nitrone and 100 μM riboflavin was irradiated for 3 min in the cavity. […] All data were the average of 3 or more measurements.

[3] = Spin trapping of radicals detected by EPR spectroscopy; settings: hydroxyl, superoxide, C-centered, sulfite, and tert-butoxyl radicals
Experimental: Miscellaneous Spin Trapping Studies Fenton reaction system. A 50 μL 0.1 M phosphate buffer solution containing 30 mM AMPO, 1% H2O2 and 65 mM FeSO4 was transferred to a 50 μL capillary tube and EPR spectrum of the hydroxyl adduct was recorded over 5 min time period.
Trapping of SO3^•−, CO2^•− and CH3.CHOH radicals. 50 μL 0.1 M phosphate buffer solution containing 30 mM AMPO, 1% H2O2 and 100 mM of the respective radical source NaHCO2, Na2SO3, or ethanol with 65 mM freshly prepared FeSO4. The mixture was then transferred to 50 μL capillary tube and EPR spectrum of the adduct was recorded over a 5 min time period.
Trapping of GS. and t-BuO. radicals. 50 μL 0.1 M phosphate buffer solution containing 30 mM AMPO and 100 mM GSSG or (CH3)3CO—OC(CH3)3. The mixture was then transferred to 50 μL capillary tube and the radicals were generated by UV photolysis. EPR spectrum of the adduct was recorded over a 5 min time period.
as §1

[4] = Partition coefficient n-octanol/water (buffer); format: physicochemical; settings: for Kp (n-octanol/water): pH 7.2, shaken for 2 hrs at 37° C.
[5] = pH 7.2 and 23° C.; literature reference; cited from earlier work
[6] = value of the competitor DEPMPO used as basis of the calculation; cited from earlier work

SMILES	Rate of superoxide radical trapping (k) [1] [M⁻¹ s⁻¹]	kl /10^−4s^−1 (first order decay of nitrone-superoxide adduct) [2]	Spin trapping of radicals by EPR [3]	partition coefficient in an n-octanol/buffer system (comparison in words) ([4]; n-octanol/buffer system)	Kp (n-octanol/water) [4]	kl /10^−4s^−1 (first order decay of nitrone-superoxide adduct) [5]	t1/2/min, first order approximation half-life of nitrone-superoxide adduct [5] [min]	Rate of superoxide radical trapping (k), reference value [6] [M⁻¹ s⁻¹]
CC1(C(N)=O)CCC=[N+]1[O-] (stereo not shown) [AMPO, 5-carbamoyl-5-methyl-1-pyrroline N-oxide]	38	14.0 ± 1.2 10^−4s^−1	has been demonstrated	comparable value to those of DMPO and DEPMPO	0.03	–	–	–
CCOP(=O)(OCC)C1(C)CCC=[N+]1[O-] (stereo not shown) [DEPMPO, 5-diethoxyphosphoryl-5-methyl-1-pyrroline N-oxide]	–	7.5 ± 0.7 10^−4s^−1	–	–	0.16	8.13 10^−4s^−1	14.2	58
CC1(C)CCC=[N+]1[O-] [DMPO]	–	–	–	–	0.06	129.0 10^−4s^−1	0.9	–
CCOC(=O)C1(C)CCC=[N+]1[O-] (stereo not shown) [EMPO, 5-ethoxycarbonyl-5-methyl-1-pyrroline N-oxide]	44	11.6 ± 0.5 10^−4s^−1	–	–	0.33	–	–	–

Source: patent US7598400B2, “AMPO spin traps” (The Ohio State University Research Foundation, priority 2004, dated 2009)
